Laboratory results: ChEMBL document CHEMBL5606460, “ASAP - DENV-2 NS2B-NS3 protease fluorescence single point” (2024)

Key:
[1] = biological target: Genome polyprotein (dengue virus type 2) (UniProt P29990)
[2] = biological target: Genome polyprotein (dengue virus type 2) (UniProt P29990); conditions: Thailand/16681/1984, Concentration 25.0 uM, Number of replicates 1.0
[3] = Thailand/16681/1984, Concentration 50.0 uM, Number of replicates 1.0
[4] = Thailand/16681/1984, Concentration 100.0 uM, Number of replicates 1.0
[5] = Thailand/16681/1984, Concentration 150.0 uM, Number of replicates 1.0
[6] = Thailand/16681/1984, Concentration 200.0 uM, Number of replicates 1.0

Row | Compound | inhibition [1, 3] [%] | inhibition [1, 4] [%] | inhibition [1, 5] [%] | inhibition [1, 6] [%] | other results
1 | Brc1nc(Br)n(Cc2cscn2)n1 | -6.97 | 2.39 | -9.57 | -1.34 | 
2 | O=c1c2cccn2cnn1Cc1cnc(Cl)s1 | -5.2 | 0.188 | -0.072 | 7.35 | 
3 | N#Cc1csc(CSc2nnc(C(F)(F)F)s2)n1 |  | -9.01 | -4.46 |  | 
4 | O=c1c2ccccc2nnn1CSc1nnc(-c2ccccc2)o1 | 2.98 | 36.2 | 31.6 | 52.5 | 
5 | N#Cc1ccc(S(=O)(=O)CCn2nc(-c3ccco3)oc2=O)cc1 | -4.79 | 5.55 |  | 2.14 | 
6 | N=C(N)NCCC[C@H](NC(=O)[C@H](Cc1ccc(CN)cc1)NC(=O)c1ccccc1)B(O)O |  |  |  |  | inhibition ([1]; Thailand/16681/1984, Concentration 0.103 uM, Number of replicates 2.0, Standard deviation 1.1552277516231042 %): 13.2%; inhibition ([1]; Thailand/16681/1984, Concentration 0.309 uM, Number of replicates 2.0, Standard deviation 1.403761128919186 %): 39.2%; inhibition ([1]; Thailand/16681/1984, Concentration 0.926 uM, Number of replicates 2.0, Standard deviation 1.9316423333512027 %): 73.2%; inhibition ([1]; Thailand/16681/1984, Concentration 2.78 uM, Number of replicates 2.0, Standard deviation 0.6346068363669732 %): 91.6%; inhibition ([1]; Thailand/16681/1984, Concentration 8.33 uM, Number of replicates 2.0, Standard deviation 0.06829499639101128 %): 97.4%; inhibition ([1]; Thailand/16681/1984, Concentration 25.0 uM, Number of replicates 2.0, Standard deviation 0.08100823932985672 %): 98.5%
7 | Cc1nnnn1Cc1ncc(Br)s1 |  |  |  | -5 | 
8 | c1ccc2[nH]c(CC3CCN(Cc4nccs4)CC3)nc2c1 |  | -1.22 |  | -8.35 | 
9 | COc1nc(Cl)c(CSc2nc(C)co2)s1 |  | 2.83 | -6.96 | 12.2 | 
10 | Cc1sc2nc(-c3cccs3)[nH]c(=O)c2c1C | -5.01 | 0.922 |  | -9.15 | 
11 | Brc1cnn(C2CCN(Cc3csnn3)CC2)c1 | -3.22 | 5.64 |  | 5.63 | 
12 | c1ccc(C2CCN(Cc3ccc4nccnc4c3)CC2)nc1 | -8.13 | 3.52 | -6.13 | -1.29 | 
13 | CC[C@H]1CO[C@H](C)CN1c1ccc(C=O)cn1 |  |  |  |  | inhibition [2]: 41.1%
14 | c1nnc(SCCCSc2nncs2)s1 | -6.11 | -7.13 | -4.63 | -0.768 | 
15 | Cn1ncnc1Sc1nc(C2CCCC2)ns1 | -3.66 | 5.27 | -9.35 | 3.96 | 
16 | NC(=O)c1ccc(Cn2nnc(C=Cc3ccccc3)n2)cc1 | -4.9 | 8.5 | 4.33 | 12.7 | 
17 | O=S(=O)(CCOc1ccccc1)c1nccs1 | -5.02 | -2.8 |  |  | 
18 | Cc1nnc(CSc2ncnc3sccc23)o1 | 8.23 | 30.9 | 40.5 | 55 | 
19 | [O-][S@@+](Cc1nc(-c2cccs2)no1)c1cccs1 | 0.907 | 3.98 |  | 5.82 | 
20 | O=c1ccccn1-c1ncc(Br)cn1 | -2.83 | -4.93 | -7.63 | 1.63 | 
21 | C[S@@+]([O-])c1nncn1Cc1ccc(Cl)s1 |  | 0.166 |  | -6.67 | 

Row | Compound | inhibition [1, 3] [%] | inhibition [1, 4] [%] | inhibition [1, 5] [%] | inhibition [1, 6] [%] | other results
22 | Brc1ccsc1CSc1cnn[nH]1 | -4.71 | 11.3 |  | 11 | 
23 | O=C(O)c1sc2cccnc2c1Br | -8.71 | 12 |  | 2.09 | 
24 | Cc1nc(C=O)c2ccccn12 |  |  |  |  | inhibition [2]: 33.3%
25 | O=c1oc2cccnc2n1CC=Cc1ccccc1 |  | 18.7 | -5.05 | 16.8 | 
26 | O=C(O)c1c(Br)sc2nnsc12 | -3.57 | -5.37 | -5.55 | 4.97 | 
27 | [O-][S@@+](Cc1ncccn1)c1ncccc1Br | -6.39 | 2.18 | -5.36 | -0.101 | 
28 | O=c1ccn(Cc2cc(=O)n3ccccc3n2)c2ccsc12 | -1.76 | 3.86 | -8.57 | 4.39 | 
29 | Cn1c(Sc2nc3ccccc3o2)nc2sccc2c1=O | -1.81 | 6.37 | -7.45 | -0.609 | 
30 | O=c1ccc(-n2cncn2)nn1CC=Cc1ccccc1 | -6.72 | -7 |  | -8.49 | 
31 | COCc1nn(CC#Cc2ccc(Cl)cc2)c(=O)o1 | -7.03 | 5.18 | -4.23 | 2.77 | 
32 | O=Cc1nc(-c2ccccc2Cl)n2ccccc12 |  |  |  |  | inhibition [2]: 20.2%
33 | O=S(=O)(c1cccs1)N1CCN(CC=Cc2ccccc2)CC1 | -7.46 | 21.8 | -8.18 | 2.78 | 
34 | O=S1(=O)CCN(CC#Cc2ccc3sncc3c2)CC1 |  | -9.23 |  | 2.54 | 
35 | O=c1c2ccccc2ncn1CCCn1cnc2ccccc2c1=O |  | 4.08 |  | 1.74 | 
36 | Nc1nc(S(=O)(=O)c2ccccc2)c(Cl)s1 |  | -1.35 |  |  | 
37 | N#Cc1ccc(OCCn2nnn(-c3ccccc3)c2=O)cc1 | -7.79 | -0.08 | -4.33 | -2.04 | 
38 | c1csc(CSc2nnc(Cn3cncn3)o2)c1 |  | 4.46 |  | -3.48 | 
39 | O=C(NCc1ccco1)c1csc(Br)c1 | -4.81 | 6.83 |  | 0.818 | 
40 | CCSc1nnc(SCCn2nc3ccccn3c2=O)s1 |  | 5.4 |  | 2.68 | 
41 | O=Cc1ccc(N2CCCCC2)cc1 |  |  |  |  | inhibition [2]: 37.1%
42 | Cc1c(C=O)c2ccccn2c1C(=O)c1ccncc1 |  |  |  |  | inhibition [2]: 41.1%

Row | Compound | inhibition [1, 3] [%] | inhibition [1, 4] [%] | inhibition [1, 5] [%] | inhibition [1, 6] [%] | other results
43 | COc1ccc2c(O)nn(S(=O)(=O)c3ccc(C(=O)O)cc3)c2c1 |  | 5.93 |  | -6.38 | 
44 | c1cc(-c2nnc(NCc3nnn[nH]3)s2)no1 |  | -2.38 |  | -2.02 | 
45 | O=Cc1ccc(N2CCC(C(=O)O)CC2)cc1 |  |  |  |  | inhibition [2]: 47.6%
46 | c1ccc2nc(SCc3cn4ccccc4n3)cnc2c1 | -5.61 | 10.2 | 7.18 | 30.9 | 
47 | Brc1cccc2cn(Cc3ncccn3)nc12 | -7.17 | 6.27 | -8.46 | 14.4 | 
48 | FC(F)(F)c1nnc(COc2cncnc2)s1 |  | -9.02 |  | -8.02 | 
49 | O=Cc1ccc(N2CCC(C(=O)O)CC2)o1 |  |  |  |  | inhibition [2]: 40.9%
50 | CN(C)c1ccc(C=C(C#N)C(N)=O)cc1 |  |  |  |  | inhibition [2]: 20.8%
51 | O=C(NCc1nccs1)c1sccc1Cl | 0.507 | 4.39 | -3.58 | -1.05 | 
52 | N=C(N)NCCC[C@H](NC(=O)c1nccs1)C(=O)N[C@@H](CCCCN)C(=O)N[C@@H](C(N)=O)c1ccc(OCc2ccc(C(F)(F)F)cc2)cc1 |  |  |  |  | inhibition ([1]; Thailand/16681/1984, Concentration 0.309 uM, Number of replicates 2.0, Standard deviation 3.0176373786002046 %): -3.85%; inhibition ([1]; Thailand/16681/1984, Concentration 0.926 uM, Number of replicates 2.0, Standard deviation 1.4110895026482932 %): 12.5%; inhibition ([1]; Thailand/16681/1984, Concentration 2.78 uM, Number of replicates 2.0, Standard deviation 1.2681150356250568 %): 36.5%; inhibition ([1]; Thailand/16681/1984, Concentration 8.33 uM, Number of replicates 2.0, Standard deviation 1.3787183923415196 %): 69.8%; inhibition ([1]; Thailand/16681/1984, Concentration 25.0 uM, Number of replicates 2.0, Standard deviation 1.0239143117161142 %): 89.5%
53 | c1csc(-c2nnc(Sc3ncnc4sccc34)o2)c1 | -7.64 | 5.5 | 1.07 | 9.38 | 
54 | Nc1ccc2ccc(B(O)O)cc2c1 |  |  |  |  | inhibition [2]: 15.2%
55 | Cc1c(C=O)c2ccccn2c1C#N |  |  |  |  | inhibition [2]: 30.7%
56 | COC(=O)c1cc2scc(Br)c2[nH]1 | -5.44 | 11.7 |  | 7.72 | 
57 | O=Cc1ccc(N2CCCCCC2)cc1 |  |  |  |  | inhibition [2]: 32.8%
58 | c1cc2sccc2c(N2CCN(Cc3ccc4cn[nH]c4c3)CC2)n1 |  | 8.61 |  | -0.953 | 
59 | Cc1nnsc1Cn1ccc(Br)n1 | -5.41 | 0.654 | -3.97 | -4.2 | 
60 | Cc1cc(NS(=O)(=O)c2ccc(S(=O)(=O)F)cc2)c[nH]c1=O |  |  |  |  | inhibition [2]: 19.6%
61 | Clc1snnc1CN1CCC(c2nc3ccccc3o2)CC1 | -8.6 | 2.94 | -7.28 | 8.81 | 
62 | O=c1[nH]c(CSc2ccccc2Cl)nc2ccsc12 | -5.28 | 18 | -7.62 | 26 | 
63 | FC(F)(F)c1nc(CNCc2cocn2)cs1 |  | 1.67 | -9.44 | -3.73 | 
